The source of these data is patent US6030643A, “Potassium, sodium and tris oxaprozin salt pharmaceutical formulations” (priority 1997, dated 2000).

Data set [1] is described as follows: Solubility of oxaprozin and its salts. It counts as physicochemical.
Another data set in a line: Light sensitivity. It counts as physicochemical.

The structures appear in SMILES notation. Structures can show the parent of a compound that is named as a salt. Where two headings read alike, the source gives them in different places.

For orientation: solubility means the dissolved amount per volume that the medium holds.

As to `O=C([O-])CCc1nc(-c2ccccc2)c(-c2ccccc2)o1.[Na+]` [sodium salt of oxaprozin, 4,5-diphenyl-2-oxazolepropanoic acid, sodium salt], in data set [1] (read-out: Solubility), the solubility is 260 mg/mL.

Turning to `O=C(O)CCc1nc(-c2ccccc2)c(-c2ccccc2)o1` [TRIS salt of oxaprozin, 4,5-diphenyl-2-oxazolepropanoic acid, tris(hydroxymethyl)aminomethanesalt], in data set [1], the solubility was found to be 380 mg/mL.

For the compound `O=C(O)CCc1nc(-c2ccccc2)c(-c2ccccc2)o1` [oxaprozin, 4,5-diphenyl-2-oxazolepropionic acid], the solubility in data set [1] was 1.7 mg/mL.

Regarding `O=C([O-])CCc1nc(-c2ccccc2)c(-c2ccccc2)o1.[K+]` [potassium salt of oxaprozin, 4,5-diphenyl-2-oxazolepropanoic acid, potassium salt], the Photosensitivity result in the data set “Light sensitivity” is “photosensitive material”. Besides, the solubility in data set [1] (read-out: Solubility) was determined as 370 mg/mL.
